Experimental data published in patent US10874652B2, “Muscle regeneration” (The Research Foundation for The State University of New York, priority 2016, dated 2020).

What was measured:
[1] = system: elastase; assay: Elastase activity in cell culture medium (fluorescent substrate cleavage); assay type: biochemical; details: 100 μM inhibitor, 0.75 U/mL purified elastase pre-incubated 1 hour
Experimental: The percentage of substrate cleavage (substrate conversion to product) was monitored over time by recording product formation every minute for 30 minutes (30 cycles of instrument recording) using a Pierce EZ-Reader.

[2] = system: myoblasts; assay: Elastase-induced myoblast cell loss ex vivo; assay type: cell-based; details: 100 μM inhibitor with 0.75 U/mL elastase, 24 hours, myoblasts on uncoated plates
Experimental: In order to determine the effect of elastase inhibitors on cultures myoblasts, myoblasts were seeded at the density of 7,000 cells/well in 12 multi-well plates (Corning) and grown for 1 day in growth medium. Twenty-four hours after plating, 0.75 U/mL of purified elastase (Sigma Aldrich) were added to the culture medium in the absence (Ela) or presence of either 100 μM Sivelestat (Ela+Sivelestat) or 100 μM Elastatinal (Ela+Elastatinal) and cultured for additional 24 hours. Quantification of total cell numbers per image was done in triplicates and plotted as average±standard error of the mean. NT=non-treated cultures, that received neither elastase nor elastase inhibitors. **=p<0.01.

[3] = system: dystrophic (mdx4cv) mice; assay: Muscle fibre size (minimum Feret diameter) in dystrophic mice; assay type: in vivo, mouse; details: 200 mg/Kg intraperitoneally twice a week, 12 weeks, gastrocnemius muscle, vs saline
Experimental: To test whether inhibition of elastase activity promoted muscle regeneration in vivo in dystrophic mice, dystrophic (mdx4cv strain) mice were treated with either the elastase inhibitor Elastatinal (dissolved in saline solution) or saline solution for 12 weeks and muscle fibre size was assayed.
Elastatinal (Enzo Life Sciences) was dissolved in a saline solution (0.9% NaCl) to the concentration of 20 mg/mL and then, either 200 mg/Kg body weight of Elastatinal or an equal volume of saline solution were injected twice a week intraperitoneally into the dystrophic (mdx4cv) mice. After 12 weeks of treatment animals were culled and several muscles dissected, embedded in Optimal Cutting Medium (OCT, Fisher) and frozen in liquid nitrogen-cooled isopentane (Sigma) for histopathological analysis.
To measure the extent of muscle regeneration, myofibre size was estimated. Sections of the gastrocnemius muscle of either Elastatinal-treated or saline-treated mice were immunostained to detect laminin which marks the periphery of each muscle fibre and then the programme SMASH′ was used to calculate the minimum Feret diameter as a direct measure of myofibre size.

[4] = system: dystrophic (mdx4cv) mice; assay: Grip strength, Kondziela's inverted screen test in dystrophic mice; assay type: in vivo, mouse
Experimental: To test whether elastase inhibition is effective in counteracting the devastating effects of the muscular dystrophy symptoms, we injected dystrophic (mdx4cv) mice with either 100 mg/Kg body weight of Elastatinal dissolved in sterile saline solution (0.9% […]) or with vehicle (sterile saline solution) alone (n=3) twice a week for 6 weeks then measured the grip strength of all 4 limbs using Kondziela's inverted screen test. Each animal was offered three attempts to reach 90 seconds of grip before falling then the best performance was assigned a score (1 to 6 for every 15 seconds spent on the grid, e.g.: 1-14 seconds=score 1, 15-29 seconds=score 2, etc.). Scores were averaged and plotted as mean±the standard error of the mean.
In addition to the above mentioned experiment, Elastatinal was dissolved in a saline solution (0.9% NaCl) to a concentration of 20 mg/mL and then either 200 mg/Kg body weight of Elastatinal or an equal volume of saline solution were injected twice a week for 12 weeks intraperitoneally into dystrophic (mdx4cv) mice. At 8, 10 and 12 weeks of treatment, muscle function (grip strength) of the mice was measured using Kondziella's inverted screen test. A 1-6 score was assigned for every 15 seconds of the total time spent by the mouse on the inverted grid such that a score of 6 indicates at least 90 seconds of latency to fall. […] Error bars are S.E.M. **=p<0.01.

[5] = system: dystrophic (mdx4cv) mice; assay: Muscle fibrosis, Picrosirius red staining of gastrocnemius muscle; assay type: in vivo, mouse; details: 200 mg/kg, 12 weeks, vs saline
Experimental: (§1) The objective of this experiment was to determine whether elastase inhibitors can reduce inflammation and/or fibrosis. To test this, cross-sections of the gastrocnemius muscle of mice that were treated with either Elastatinal or saline solution were stained with Picrosirius red, or labelled with an anti-CD45 antibody or an anti-laminin antibody. Picrosirius red allows to differentiate between collagen and the rest of the tissue as it stains the collagen a different colour. The anti-CD45 antibody allows the detection of infiltrating leukocytes (which are a marker of inflammation), and the anti-laminin antibody allows the detection of the periphery of myofibres. Both, the amount of fibrosis and the amount of infiltrated CD45+ leukocytes were reduced with Elastatinal treatment, supporting the hypothesis that elastase activity inhibition reduces fibrosis and inflammation.
(§2) For this experiment, the mice were treated with an injection of 200 mg/kg of Elastatinal dissolved in a saline solution (0.9% NaCl) to a concentration of 20 mg/mL. Control mice were treated with an equal volume of saline. […]
The amount of Picrosirius red staining was quantified by selecting re pixels and quantifying the red area using the ImageJ function “Analyze particles”. Averages of 10 technical replicates for each one of 3 biological replicates (N=30) were analysed (FIG. 10 B).

[6] = system: dystrophic (mdx4cv) mice; assay: Muscle inflammation, CD45+ leukocyte infiltration of gastrocnemius muscle; assay type: in vivo, mouse; details: 200 mg/kg, 12 weeks, vs saline
Experimental: as §1, §2
To measure the extent of inflammation, the numbers of infiltrating leucocyte, recognized by immunostaining for CD45 (BD Biosciences) were scored as percentage of area positive to CD45 immunostaining using a written script for Fiji softwate (available at http://fiji.sc) (FIG. 10 D).

Structure (SMILES) | reduction of elastase activity [1] | elastase-induced cell loss [2] | muscle fibre size (minimum Feret diameter) [3] | muscle strength (grip strength) ([4]; 100 mg/Kg twice a week for 6 weeks, vs vehicle) | grip strength ([4]; 200 mg/Kg intraperitoneally twice a week for 12 weeks, measured at 8, 10 and 12 weeks, vs saline) | amount of fibrosis [5] | amount of infiltrated CD45+ leukocytes [6]
CC(C)(C)C(=O)Oc1ccc(S(=O)(=O)Nc2ccccc2C(=O)NCC(=O)O)cc1 [Sivelestat] | approximately 80% | prevents elastase-induced cell loss | – | – | – | – | –
CC(C)C[C@H](NC(=O)N[C@H](C(=O)N[C@@H](CCC(N)=O)C(=O)N[C@@H](C)C=O)[C@@H]1CCNC(=N)N1)C(=O)O [Elastatinal] | approximately 80% | prevents elastase-induced cell loss | increasing muscle fibre size | improved muscle strength | statistically significantly improved grip strength | reduced | reduced
